Target: T1, IDO1 (Homo sapiens, UniProt P14902)
T1 construct: endogenous in cells; host or cells: HeLa cells (ATCC), IFNgamma-induced
Assay: IDO1 cell-based assay (HeLa cells, IFNgamma-induced, N-formylkynurenine/L-tryptophan by RFMS)
Details: 10 ng/mL IFNgamma, 24 hours
Method in brief: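 N-formylkynurenine and tryptophan peak areas in media measured by RFMS (C18, isocratic, d-Trp standard), giving IC50 values by regression. Source: HeLa cells incubated 24 h with IFNgamma (10 ng/mL) plus test compound at 0.5% DMSO; parallel CellTiter-Glo viability read.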

T1 sequence (P14902 whole entry): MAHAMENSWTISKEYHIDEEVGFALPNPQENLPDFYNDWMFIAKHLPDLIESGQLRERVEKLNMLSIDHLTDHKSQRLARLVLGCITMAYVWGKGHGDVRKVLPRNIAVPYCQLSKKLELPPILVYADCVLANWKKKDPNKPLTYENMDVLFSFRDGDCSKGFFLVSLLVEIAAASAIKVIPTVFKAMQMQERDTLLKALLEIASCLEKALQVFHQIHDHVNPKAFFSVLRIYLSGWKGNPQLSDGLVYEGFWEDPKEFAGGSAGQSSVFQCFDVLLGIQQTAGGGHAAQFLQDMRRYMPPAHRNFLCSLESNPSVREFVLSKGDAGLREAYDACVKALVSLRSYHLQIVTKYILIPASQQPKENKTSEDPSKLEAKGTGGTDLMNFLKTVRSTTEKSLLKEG

| SMILES | IC50 |
| --- | --- |
| C=Cc1cnn([C@@H]2C[C@@H]3[C@H](C2)[C@H]3[C@@H](CC)NC(=O)c2ccc(Cl)cc2)c1 [Compound 305, 4-chloro-N-((R)-1-((1R,3S,5S,6r)-3-(4-vinyl-1H-pyrazol-1-yl)bicyclo[3.1.0]hexan-6-yl)propyl)benzamide] | < 200 nM |
| CC[C@@H](NC(=O)c1ccc(Cl)cc1)[C@H]1[C@@H]2C[C@@H](n3ccc(C4CC4)n3)C[C@@H]21 [Compound 343, 4-chloro-N-((R)-1-((1R,3S,5S,6r)-3-(3-cyclopropyl-1H-pyrazol-1-yl)bicyclo[3.1.0]hexan-6-yl)propyl)benzamide] | < 200 nM |
| CCC(NC(=O)c1ccc(Cl)cn1)C1[C@H]2CC(Oc3cnnc4ccccc34)C[C@@H]12 (stereo partly drawn) [Compound 77, 5-chloro-N-(1-((1R,5S)-3-(cinnolin-4-yloxy)bicyclo[3.1.0]hexan-6-yl)propyl)picolinamide] | 200 to 2000 nM |
| CCC(NC(=O)c1ccc(Cl)cc1)[C@H]1[C@@H]2C[C@@H](Oc3ncccc3C)C[C@@H]21 (stereo partly drawn) [Compound 41, 4-chloro-N-(1-((1R,3s,5S,6r)-3-((3-methylpyridin-2-yl)oxy)bicyclo[3.1.0]hexan-6-yl)propyl)benzamide] | < 200 nM |
| N#Cc1cccc(C(=O)NC[C@@H]2[C@H]3C[C@H](n4cnc5cc(F)c(F)cc54)C[C@@H]23)c1 [Compound 321, 3-cyano-N-(((1R,3s,5S,6r)-3-(5,6-difluoro-1H-benzo[d]imidazol-1-yl)bicyclo[3.1.0]hexan-6-yl)methyl)benzamide] | 200 to 2000 nM |
| CC(NC(=O)c1ccc(C#N)cc1)C1[C@H]2CC(O)C[C@@H]12 (stereo partly drawn) [Compound 105, 4-cyano-N-(1-((1R,3r,5S,6r)-3-hydroxybicyclo[3.1.0]hexan-6-yl)ethyl)benzamide] | > 5000 nM |
| CCC(NC(=O)c1ccc(Cl)cc1)[C@H]1[C@@H]2C[C@@H](Nc3ccc(Cl)cc3[N+](=O)[O-])C[C@@H]21 (stereo partly drawn) [Compound 270, 4-chloro-N-(1-((1R,3s,5S,6r)-3-((4-chloro-2-nitrophenyl)amino)bicyclo[3.1.0]hexan-6-yl)propyl)benzamide] | < 200 nM |
| CC(NC(=O)c1ccc(C#N)cc1)C1[C@H]2CC(O)C[C@@H]12 (stereo partly drawn) [Compound 106, 4-cyano-N-(1-((1R,3s,5S,6r)-3-hydroxybicyclo[3.1.0]hexan-6-yl)ethyl)benzamide] | > 5000 nM |
| CCC(NC(=O)c1ccc(Cl)cc1)[C@H]1[C@@H]2C[C@@H](Oc3c(Cl)ccnc3C)C[C@@H]21 (stereo partly drawn) [Compound 92, 4-chloro-N-(1-((1R,3s,5S,6r)-3-((4-chloro-2-methylpyridin-3-yl)oxy)bicyclo[3.1.0]hexan-6-yl)propyl)benzamide] | < 200 nM |
| C[C@@H](NC(=O)c1ccc(Cl)cc1)[C@H]1[C@@H]2C[C@@H](Oc3cc(Cl)ccc3C(=O)O)C[C@@H]21 [Compound 341, 4-chloro-2-(((1R,3S,5S,6r)-6-((R)-1-(4-chlorobenzamido)ethyl)bicyclo[3.1.0]hexan-3-yl)oxy)benzoic acid] | 2000 to 5000 nM |
| CCC(NC(=O)c1ccc(Cl)cc1)[C@H]1[C@@H]2C[C@@H](Oc3ncnc4cc(Cl)ccc34)C[C@@H]21 (stereo partly drawn) [Compound 21, 4-chloro-N-(1-((1R,3s,5S,6r)-3-((7-chloroquinazolin-4-yl)oxy)bicyclo[3.1.0]hexan-6-yl)propyl)benzamide] | < 200 nM |
| O=S(=O)(Cc1ccc(Br)cc1)NC1C2CC(Oc3ccnc4ccccc34)CC21 (centres unmarked) [Compound 27, 1-(4-bromophenyl)-N-(3-(quinolin-4-yloxy)bicyclo[3.1.0]hexan-6-yl)methanesulfonamide] | > 5000 nM |
| CCC(NC(=O)c1ccc(Cl)cc1)[C@H]1[C@@H]2C[C@@H](NS(=O)(=O)c3ccccc3)C[C@@H]21 (stereo partly drawn) [Compound 116, 4-chloro-N-(1-((1R,3s,5S,6r)-3-(phenylsulfonamido)bicyclo[3.1.0]hexan-6-yl)propyl)benzamide] | 200 to 2000 nM |
| CC[C@H](NC(=O)c1ccc(Cl)cc1)[C@H]1[C@@H]2C[C@@H](Oc3cnnc4ccccc34)C[C@@H]21 [Compound 103, 4-chloro-N-((S)-1-((1R,3R,5S,6r)-3-(cinnolin-4-yloxy)bicyclo[3.1.0]hexan-6-yl)propyl)benzamide] | < 200 nM |
| CC(C(=O)Nc1ccc(Cl)cc1)[C@H]1[C@@H]2C[C@@H](Oc3ncnc4ccc(F)cc34)C[C@@H]21 (stereo partly drawn) [Compound 339, N-(4-chlorophenyl)-2-((1R,3s,5S,6r)-3-((6-fluoroquinazolin-4-yl)oxy)bicyclo[3.1.0]hexan-6-yl)propanamide] | < 200 nM |
| CCC(NC(=O)c1ccc(Cl)cc1)[C@H]1[C@@H]2C[C@@H](N=[N+]=[N-])C[C@@H]21 (stereo partly drawn) [Compound 90, N-(1-((1R,3s,5S,6r)-3-azidobicyclo[3.1.0]hexan-6-yl)propyl)-4-chlorobenzamide] | 200 to 2000 nM |
| CC[C@@H](NC(=O)c1ccc(C#N)cc1)[C@H]1[C@@H]2C[C@@H](c3ccnc4ccc(F)cc34)C[C@@H]21 [Compound 277, 4-cyano-N-((R)-1-((1R,3S,5S,6r)-3-(6-fluoroquinolin-4-yl)bicyclo[3.1.0]hexan-6-yl)propyl)benzamide] | < 200 nM |
| CC[C@@H](NC(=O)c1ccc(Cl)cc1)[C@H]1[C@@H]2C[C@@H](Oc3cnnc4ccccc34)C[C@@H]21 [Compound 104, 4-chloro-N-((R)-1-((1R,3S,5S,6r)-3-(cinnolin-4-yloxy)bicyclo[3.1.0]hexan-6-yl)propyl)benzamide] | < 200 nM |
| CCC(NC(=O)c1ccc(Cl)cc1)[C@H]1[C@@H]2C[C@@H](Oc3ccccc3CC(N)=O)C[C@@H]21 (stereo partly drawn) [Compound 45, N-(1-((1R,3s,5S,6r)-3-(2-(2-amino-2-oxoethyl)phenoxy)bicyclo[3.1.0]hexan-6-yl)propyl)-4-chlorobenzamide] | < 200 nM |
| C#Cc1ccc2ncnc(N[C@@H]3C[C@@H]4[C@H](C3)[C@H]4[C@@H](CC)NC(=O)c3ccc(Cl)cc3)c2c1 [Compound 337, 4-chloro-N-((R)-1-((1R,3S,5S,6r)-3-((6-ethynylquinazolin-4-yl)amino)bicyclo[3.1.0]hexan-6-yl)propyl)benzamide] | < 200 nM |
| CCC(NC(=O)c1ccc(Cl)cc1)[C@H]1[C@@H]2C[C@@H](Nc3ccc(C#N)cc3[N+](=O)[O-])C[C@@H]21 (stereo partly drawn) [Compound 269, 4-chloro-N-(1-((1R,3s,5S,6r)-3-((4-cyano-2-nitrophenyl)amino)bicyclo[3.1.0]hexan-6-yl)propyl)benzamide] | < 200 nM |

Next, values leading:

| IC50 | SMILES |
| --- | --- |
| < 200 nM | CC(C(=O)Nc1ccc(Cl)cc1)[C@H]1[C@@H]2C[C@@H](Oc3ccnc4ccc(F)cc34)C[C@@H]21 (stereo partly drawn) [Compound 347, N-(4-chlorophenyl)-2-((1R,3s,5S,6r)-3-((6-fluoroquinolin-4-yl)oxy)bicyclo[3.1.0]hexan-6-yl)propanamide] |
| 200 to 2000 nM | CC[C@@H](NC(=O)C1(C(F)(F)F)CC1)[C@H]1[C@@H]2C[C@@H](n3cnc4cc(F)c(F)cc43)C[C@@H]21 [Compound 352, N-((R)-1-((1R,3S,5S,6r)-3-(5,6-difluoro-1H-benzo[d]imidazol-1-yl)bicyclo[3.1.0]hexan-6-yl)propyl)-1-(trifluoromethyl)cyclopropane-1-carboxamide] |
| < 200 nM | CCC(NC(=O)c1ccc(Cl)cc1)[C@H]1[C@@H]2C[C@@H](Oc3cc(F)ccc3F)C[C@@H]21 (stereo partly drawn) [Compound 42, 4-chloro-N-(1-((1R,3s,5S,6r)-3-(2,5-difluorophenoxy)bicyclo[3.1.0]hexan-6-yl)propyl)benzamide] |
| < 200 nM | CCC(NC(=O)c1ccc(Cl)cc1)[C@H]1[C@@H]2C[C@@H](Oc3ccnc(C)c3)C[C@@H]21 (stereo partly drawn) [Compound 15, 4-chloro-N-(1-((1R,3s,5S,6r)-3-((2-methylpyridin-4-yl)oxy)bicyclo[3.1.0]hexan-6-yl)propyl)benzamide] |
| < 200 nM | CC(C(=O)Nc1ccc(Cl)c(F)c1)[C@H]1[C@@H]2C[C@@H](n3cnc4cc(F)c(F)cc43)C[C@@H]21 (stereo partly drawn) [Compound 345, N-(4-chloro-3-fluorophenyl)-2-((1R,3s,5S,6r)-3-(5,6-difluoro-1H-benzo[d]imidazol-1-yl)bicyclo[3.1.0]hexan-6-yl)propanamide] |
| 200 to 2000 nM | O=C(NC[C@@H]1[C@H]2C[C@H](n3cnc4cc(F)c(F)cc43)C[C@@H]12)c1cccc(F)c1 [Compound 320, N-(((1R,3s,5S,6r)-3-(5,6-difluoro-1H-benzo[d]imidazol-1-yl)bicyclo[3.1.0]hexan-6-yl)methyl)-3-fluorobenzamide] |
| 2000 to 5000 nM | O=C(Cc1ccc(Cl)cc1)N[C@H]1[C@@H]2C[C@@H](n3cnc4ccc(F)cc4c3=O)C[C@@H]21 [Compound 62, 2-(4-chlorophenyl)-N-((1R,3s,5S,6r)-3-(6-fluoro-4-oxoquinazolin-3(4H)-yl)bicyclo[3.1.0]hexan-6-yl)acetamide] |
| < 200 nM | C=C(C)c1cn([C@@H]2C[C@@H]3[C@H](C2)[C@H]3C(CC)NC(=O)c2ccc(Cl)cc2)nn1 (stereo partly drawn) [Compound 147, 4-chloro-N-(1-((1R,3s,5S,6r)-3-(4-(prop-1-en-2-yl)-1H-1,2,3-triazol-1-yl)bicyclo[3.1.0]hexan-6-yl)propyl)benzamide] |
| < 200 nM | CCC(NC(=O)c1ccc(Cl)cc1)[C@H]1[C@@H]2C[C@@H](n3cc(C(=O)N4CCCC4)nn3)C[C@@H]21 (stereo partly drawn) [Compound 98, 4-chloro-N-(1-((1R,3s,5S,6r)-3-(4-(pyrrolidine-1-carbonyl)-1H-1,2,3-triazol-1-yl)bicyclo[3.1.0]hexan-6-yl)propyl)benzamide] |
| 200 to 2000 nM | CC(NC(=O)c1ccc(C#N)cc1)[C@H]1[C@@H]2C[C@@H](n3cc(C4CC4)nn3)C[C@@H]21 (stereo partly drawn) [Compound 129, 4-cyano-N-(1-((1R,3s,5S,6r)-3-(4-cyclopropyl-1H-1,2,3-triazol-1-yl)bicyclo[3.1.0]hexan-6-yl)ethyl)benzamide] |
| 200 to 2000 nM | CCC(NC(=O)c1ccc(Cl)cc1)[C@H]1[C@@H]2C[C@@H](Oc3ccc4c(Cl)ccnc4c3)C[C@@H]21 (stereo partly drawn) [Compound 57, 4-chloro-N-(1-((1R,3s,5S,6r)-3-((4-chloroquinolin-7-yl)oxy)bicyclo[3.1.0]hexan-6-yl)propyl)benzamide] |

From US11173145B2, “Compounds useful as inhibitors of indoleamine 2,3-dioxygenase and/or tryptophan dioxygenase” (Board of Regents, The University of Texas System, priority 2017, dated 2021)
